One block for each compound: values may come before it.
Experiments:
[1] = Solubility testing of budesonide in P134a and P227 formulations at approximately 5° C.; assay type: physicochemical
[2] = assay type: physicochemical
Description: (§1) At ambient temperature, a 3 mL ethanol solution of budesonide (0.007 M) was mixed with 0.1 g of aluminum oxide (Aldrich, neutral, activated Brockmann I, 150 mesh), which mimics aluminum oxide existing on the inner surface of aluminum containers. Each aliquot was filtered with a syringe filter and diluted with acetonitrile by 20 times for HPLC analysis to determine the recovery of budesonide with respect to the initial concentration. The recoveries of budesonide were compared with a reference, which contained the same concentration of budesonide but in ethanol solution without aluminum oxide.
as §1, with “triamcinolone acetonide” for “budesonide”
as §1, with “dexamethasone” for “budesonide”, “aliquote” for “aliquot”, “recoveries” for “recovery”, “inital” for “initial”

[3] = cited from earlier work; for Chemical stability of solution MDI formulation (in words): solution formulations, HFC propellant, prior publications

Budesonide Solubility, MEAN ([1]; P134a, 5° C.): 0.012 mg/g | Budesonide Solubility, sample 1 ([1]; P134a, 5° C.): 0.013 mg/g | Budesonide Solubility, sample 2 ([1]; P134a, 5° C.): 0.010 mg/g | Budesonide Solubility, MEAN ([1]; P134a/5% EtOH, 5° C.): 0.465 mg/g | Budesonide Solubility, sample 1 ([1]; P134a/5% EtOH, 5° C.): 0.459 mg/g | Budesonide Solubility, sample 2 ([1]; P134a/5% EtOH, 5° C.): 0.471 mg/g | Budesonide Solubility, MEAN ([1]; P134a/10% EtOH, 5° C.): 1.382 mg/g | Budesonide Solubility, sample 1 ([1]; P134a/10% EtOH, 5° C.): 1.370 mg/g | Budesonide Solubility, sample 2 ([1]; P134a/10% EtOH, 5° C.): 1.394 mg/g | Budesonide Solubility, MEAN ([1]; P134a/15% EtOH, 5° C.): 2.699 mg/g | Budesonide Solubility, sample 1 ([1]; P134a/15% EtOH, 5° C.): 2.686 mg/g | Budesonide Solubility, sample 2 ([1]; P134a/15% EtOH, 5° C.): 2.711 mg/g | Budesonide Solubility, MEAN ([1]; P134a/20% EtOH, 5° C.): 4.360 mg/g | Budesonide Solubility, sample 1 ([1]; P134a/20% EtOH, 5° C.): 4.329 mg/g | Budesonide Solubility, sample 2 ([1]; P134a/20% EtOH, 5° C.): 4.390 mg/g | Budesonide Solubility, MEAN ([1]; P227, 5° C.): 0.016 mg/g | Budesonide Solubility, sample 1 ([1]; P227, 5° C.): 0.017 mg/g | Budesonide Solubility, sample 2 ([1]; P227, 5° C.): 0.015 mg/g | Budesonide Solubility, MEAN ([1]; P227/5% EtOH, 5° C.): 0.657 mg/g | Budesonide Solubility, sample 1 ([1]; P227/5% EtOH, 5° C.): 0.652 mg/g | Budesonide Solubility, sample 2 ([1]; P227/5% EtOH, 5° C.): 0.661 mg/g | Budesonide Solubility, MEAN ([1]; P227/10% EtOH, 5° C.): 1.703 mg/g | Budesonide Solubility, sample 1 ([1]; P227/10% EtOH, 5° C.): 1.698 mg/g | Budesonide Solubility, sample 2 ([1]; P227/10% EtOH, 5° C.): 1.707 mg/g | Budesonide Solubility, MEAN ([1]; P227/15% EtOH, 5° C.): 2.98 mg/g | Budesonide Solubility, sample 1 ([1]; P227/15% EtOH, 5° C.): 2.952 mg/g | Budesonide Solubility, sample 2 ([1]; P227/15% EtOH, 5° C.): 3.008 mg/g | Budesonide Solubility, MEAN ([1]; P227/20% EtOH, 5° C.): 4.435 mg/g | Budesonide Solubility, sample 1 ([1]; P227/20% EtOH, 5° C.): 4.387 mg/g | Budesonide Solubility, sample 2 ([1]; P227/20% EtOH, 5° C.): 4.483 mg/g | Degradation in the presence of aluminum oxide (in words) [2]: almost totally consumed
Compound: CCCC1O[C@@H]2C[C@H]3[C@@H]4CCC5=CC(=O)C=C[C@]5(C)[C@H]4[C@@H](O)C[C@]3(C)[C@]2(C(=O)CO)O1 (stereo partly drawn) [budesonide]

Compound: CCC(=O)OCC(=O)[C@@]1(OC(=O)CC)[C@@H](C)C[C@H]2[C@@H]3CCC4=CC(=O)C=C[C@]4(C)[C@@]3(Cl)[C@@H](O)C[C@@]21C [beclomethasone dipropionate]
Chemical stability of solution MDI formulation (in words) [3]: surprisingly chemically stable

Compound: CC1(C)O[C@@H]2C[C@H]3[C@@H]4CCC5=CC(=O)C=C[C@]5(C)[C@@]4(F)[C@@H](O)C[C@]3(C)[C@]2(C(=O)CO)O1 [triamcinolone acetonide]
Degradation in aqueous formulations (in words) ([3]; aqueous formulations in neutral or basic solutions, WO96/40042): undergo oxidative degradation catalyzed by trace levels of metal ions

Degradation in the presence of aluminum oxide (in words) [2]: completely degrades
Compound: C[C@@H]1C[C@H]2[C@@H]3CCC4=CC(=O)C=C[C@]4(C)[C@@]3(F)[C@@H](O)C[C@]2(C)[C@@]1(O)C(=O)CO [dexamethasone]

Compound: CC(C)C(=O)OCC(=O)[C@@]12O[C@H](C3CCCCC3)O[C@@H]1C[C@H]1[C@@H]3CCC4=CC(=O)C=C[C@]4(C)[C@H]3[C@@H](O)C[C@@]12C [ciclesonide]
Chemical stability of solution MDI formulation (in words) [3]: surprisingly chemically stable

Degradation rate in ethanol/Al2O3 relative to isomer 21-BMP (17-OH) [2]: about 100 times
Compound: CCC(=O)O[C@]1(C(=O)CO)[C@@H](C)C[C@H]2[C@@H]3CCC4=CC(=O)C=C[C@]4(C)[C@@]3(Cl)[C@@H](O)C[C@@]21C [beclomethasone 17-monopropionate]
